Data: US10967078B2, “Radiolabelled mGluR2 PET ligands” (Janssen Pharmaceutica NV, priority 2014, dated 2021)

Biological target: T1, mGluR2 (Rattus norvegicus, UniProt P31421)
T1 construct: horizontal sections of mGluR2 KO and WT mouse brain and of normal female Wistar rat brain; from tissue; host or cells: normal female Wistar rat brain sections, 20 µm
Assay: In vitro autoradiography binding on normal female Wistar rat brain sections
Procedure: In vitro autoradiography studies were performed on horizontal sections of mGluR2 KO and WT mouse brain and of normal female Wistar rat brain (20 μm). The sections were preincubated in 50 mM Tris-HCl (MgCl2 2 mM, CaCl2 2 mM; pH 7.0) for 10 min (two times) at room temperature and dried. Next, the brain sections were incubated with tracer [^11C]-2, [^11C]-5, [^11C]-4, [^11C]-1 or [^18F]-3 diluted in the same Tris-HCl buffer as used for the preincubation additionally containing 0.1% BSA or with this tracer solution in the presence of 10 μM Co. No. 2 or Co. No. 1. The mouse brain sections were incubated with 17 kBq of carbon-11 labeled tracer and 1.7 kBq of fluorine-18 labeled tracer. For the rat brain sections this was 44 kBq of carbon-11 labeled tracer and 0.44 kBq of fluorine-18 labeled tracer. After 30 min of incubation, the brain sections were washed three times for 5 min in ice-cold Tris-HCl 50 mM ((MgCl2 2 mM, CaCl2 2 mM; pH 7.0+0.1% BSA buffer). After a quick dip in purified ice-cold water, the slides were dried. Autoradiograms were obtained by exposing the slides overnight to a high-performance phosphor storage screen (super-resolution screen; Perkin Elmer, Waltham, USA). The screens were read using a Cyclone Plus system (Perkin Elmer) and analysed using Optiquant software (Perkin Elmer). The radioactivity concentration in the autoradiograms was expressed in digital light units (DLU)/mm^2.
To obtain additional information on the specificity of the tracer binding to mGluR2, in vitro autoradiography binding studies were performed on mGluR2 KO and WT mouse brain sections and on normal rat brain sections in presence or absence of a high concentration of mGluR2 NAM compounds (Co. No. 1 or Co. No. 2).

[1] = self-blocking or blocking with Co. No. 1 (10 μM)

T1 sequence (P31421 19-872): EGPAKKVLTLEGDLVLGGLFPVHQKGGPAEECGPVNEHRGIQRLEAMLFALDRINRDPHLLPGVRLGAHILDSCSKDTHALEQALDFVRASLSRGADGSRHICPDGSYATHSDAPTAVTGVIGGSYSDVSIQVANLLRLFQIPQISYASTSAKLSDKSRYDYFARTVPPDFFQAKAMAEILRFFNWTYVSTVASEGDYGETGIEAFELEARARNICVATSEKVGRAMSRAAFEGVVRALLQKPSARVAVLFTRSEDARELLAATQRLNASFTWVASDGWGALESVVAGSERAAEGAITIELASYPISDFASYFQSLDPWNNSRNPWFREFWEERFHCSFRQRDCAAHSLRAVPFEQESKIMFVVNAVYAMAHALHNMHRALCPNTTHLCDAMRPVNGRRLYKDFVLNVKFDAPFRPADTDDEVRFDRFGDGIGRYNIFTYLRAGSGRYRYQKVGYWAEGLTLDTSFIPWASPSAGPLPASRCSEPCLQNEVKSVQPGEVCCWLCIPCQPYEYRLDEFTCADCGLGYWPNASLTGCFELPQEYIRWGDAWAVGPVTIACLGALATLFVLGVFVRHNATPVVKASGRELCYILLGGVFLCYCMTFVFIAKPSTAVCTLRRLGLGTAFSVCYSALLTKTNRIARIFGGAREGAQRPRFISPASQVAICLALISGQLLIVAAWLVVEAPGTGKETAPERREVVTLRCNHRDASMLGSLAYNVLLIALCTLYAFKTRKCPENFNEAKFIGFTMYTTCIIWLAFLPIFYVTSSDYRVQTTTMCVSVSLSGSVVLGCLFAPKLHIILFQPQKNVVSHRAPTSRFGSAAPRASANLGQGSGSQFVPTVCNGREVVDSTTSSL

C[C@H]1CN(c2ccc(C(F)(F)F)cc2)C(=O)c2c(-c3ccnc(N[11CH3])c3)cnn21 [[^11C]-2]
total binding to normal rat brain sections (in words): high binding | decrease in binding in rat cortex [1]: ~91% | decrease in binding in rat striatum [1]: ~78%
